Results as given in ChEMBL document CHEMBL1148876 (Bioorg Med Chem Lett, 2007).
Active and inactive are the calls of the source. The rule behind the calls is not given here.

What was measured:
[1] = Apparent permeability from apical to basolateral side in MDR-MDCK cells overexpressing human p-glycoprotein at 5 uM after 120 mins; type: ADME, cell-based; details: MDCK-MDR1
[2] = Apparent permeability from basolateral to apical side in MDR-MDCK cells overexpressing human p-glycoprotein at 5 uM after 120 mins; type: ADME, cell-based; details: MDCK-MDR1
[3] = Stability assessed as half life in mouse plasma; type: ADME, cell-free
[4] = Stability assessed as half life in PBS buffer; type: physicochemical
[5] = Stability in PBS assessed as percentage of remaining compound after 24 hrs; type: physicochemical; details: read-out: Activity
HEK293 = test: Cytotoxicity against HEK293 cells; type: functional, cell-based; details: Homo sapiens
Tubulin (Homo sapiens) = Tubulin (Homo sapiens) (UniProt P68371+Q9H4B7+P0DPH7+P68366+Q13509+Q71U36+P04350+Q3ZCM7+P07437+P68363+Q9BQE3+Q6PEY2+Q13885+Q9BVA1+Q9BUF5); test: Effect on tubulin polymerization by microtubule polymerization assay; type: protein-complex assay
MDCK = test: (§1) Ratio of permeability from basolateral to apical over apical to basolateral side of the MDR-MDCK cells at 5 uM after 120 mins; type: ADME, cell-based; details: human, mdck, 2 h, 5 µM
Homo sapiens = organism: Homo sapiens; test: Stability assessed as half life in human plasma
[6] = as §1; type: ADME, cell-based; details: human, MDCK-MDR1

Papp A→B at 2 h, 5 µM [1]	Papp B→A at 2 h, 5 µM [2]	half-life [3]	half-life [4]	remaining at 24 h [5]	Activity (Tubulin (Homo sapiens))	Ratio (MDCK)	half-life (Homo sapiens)	efflux ratio at 2 h, 5 µM [6]	Structure (SMILES)	IC50 (HEK293)
0.08 ×10⁻⁶ cm/s	0.1 ×10⁻⁶ cm/s	19.5 h	> 60 h	75.1%	–	1.3	15.3 h	–	CC(=O)O[C@@]12CO[C@@H]1C[C@H](O)[C@@]1(C)C(=O)[C@H](OC(=O)CCC(=O)O)C3=C(C)[C@@H](OC(=O)[C@H](O)[C@@H](NC(=O)c4ccccc4)c4ccccc4)C[C@@](O)([C@@H](OC(=O)c4ccccc4)[C@H]21)C3(C)C	4.7 µM
0.09 ×10⁻⁶ cm/s	0.05 ×10⁻⁶ cm/s	31.3 h	> 60 h	91.6%	–	–	52 h	0.6	CC(=O)O[C@@]12CO[C@@H]1C[C@H](O)[C@@]1(C)C(=O)[C@H](OC(=O)NCC(=O)O)C3=C(C)[C@@H](OC(=O)[C@H](O)[C@@H](NC(=O)c4ccccc4)c4ccccc4)C[C@@](O)([C@@H](OC(=O)c4ccccc4)[C@H]21)C3(C)C	8.3 µM
0.09 ×10⁻⁶ cm/s	0.8 ×10⁻⁶ cm/s	–	–	–	–	–	–	8.8	CC(=O)O[C@@]12CO[C@@H]1C[C@H](O)[C@@]1(C)C(=O)[C@H](OC(=O)NCC(=O)N(C)C)C3=C(C)[C@@H](OC(=O)[C@H](O)[C@@H](NC(=O)c4ccccc4)c4ccccc4)C[C@@](O)([C@@H](OC(=O)c4ccccc4)[C@H]21)C3(C)C	1 µM
< 0.64 ×10⁻⁶ cm/s	< 0.64 ×10⁻⁶ cm/s	–	–	–	–	–	–	–	CC(=O)O[C@@]12CO[C@@H]1C[C@H](O)[C@@]1(C)C(=O)[C@H](OC(=O)NCCC(=O)O)C3=C(C)[C@@H](OC(=O)[C@H](O)[C@@H](NC(=O)c4ccccc4)c4ccccc4)C[C@@](O)([C@@H](OC(=O)c4ccccc4)[C@H]21)C3(C)C	7.4 µM
< 0.63 ×10⁻⁶ cm/s	< 0.63 ×10⁻⁶ cm/s	–	–	–	–	–	–	–	CC(=O)O[C@@]12CO[C@@H]1C[C@H](O)[C@@]1(C)C(=O)[C@H](OC(=O)N[C@H](C)C(=O)O)C3=C(C)[C@@H](OC(=O)[C@H](O)[C@@H](NC(=O)c4ccccc4)c4ccccc4)C[C@@](O)([C@@H](OC(=O)c4ccccc4)[C@H]21)C3(C)C	2.5 µM
< 0.21 ×10⁻⁶ cm/s	< 0.21 ×10⁻⁶ cm/s	–	–	–	–	–	–	–	CC(=O)O[C@@]12CO[C@@H]1C[C@H](O)[C@@]1(C)C(=O)[C@H](OC(=O)NCCO)C3=C(C)[C@@H](OC(=O)[C@H](O)[C@@H](NC(=O)c4ccccc4)c4ccccc4)C[C@@](O)([C@@H](OC(=O)c4ccccc4)[C@H]21)C3(C)C	0.7 µM
< 0.62 ×10⁻⁶ cm/s	3.36 ×10⁻⁶ cm/s	–	–	–	–	> 5.4	–	–	COC(=O)CNC(=O)O[C@H]1C(=O)[C@@]2(C)[C@H]([C@H](OC(=O)c3ccccc3)[C@]3(O)C[C@H](OC(=O)[C@H](O)[C@@H](NC(=O)c4ccccc4)c4ccccc4)C(C)=C1C3(C)C)[C@]1(OC(C)=O)CO[C@@H]1C[C@@H]2O	0.06 µM
< 0.06 ×10⁻⁶ cm/s	< 0.06 ×10⁻⁶ cm/s	–	–	–	–	–	–	–	CC(=O)O[C@@]12CO[C@@H]1C[C@H](O)[C@@]1(C)C(=O)[C@H](OC(=O)N[C@@H](C)C(=O)O)C3=C(C)[C@@H](OC(=O)[C@H](O)[C@@H](NC(=O)c4ccccc4)c4ccccc4)C[C@@](O)([C@@H](OC(=O)c4ccccc4)[C@H]21)C3(C)C	3.9 µM

The remaining lines, values behind:

Structure (SMILES)	Papp A→B at 2 h, 5 µM [1]	Papp B→A at 2 h, 5 µM [2]	half-life [3]	half-life [4]	remaining at 24 h [5]	Activity (Tubulin (Homo sapiens))	Ratio (MDCK)	half-life (Homo sapiens)	efflux ratio at 2 h, 5 µM [6]	IC50 (HEK293)
CC(=O)O[C@H]1C(=O)[C@@]2(C)[C@H]([C@H](OC(=O)c3ccccc3)[C@]3(O)C[C@H](OC(=O)[C@H](O)[C@@H](NC(=O)c4ccccc4)c4ccccc4)C(C)=C1C3(C)C)[C@]1(OC(C)=O)CO[C@@H]1C[C@@H]2O [PACLITAXEL]	0.2 ×10⁻⁶ cm/s	28.5 ×10⁻⁶ cm/s	30.1 h	> 60 h	85.2%	inactive	–	–	–	0.01 µM
CC(=O)O[C@@]12CO[C@@H]1C[C@H](O)[C@@]1(C)C(=O)[C@H](OC(=O)N(C)CC(=O)O)C3=C(C)[C@@H](OC(=O)[C@H](O)[C@@H](NC(=O)c4ccccc4)c4ccccc4)C[C@@](O)([C@@H](OC(=O)c4ccccc4)[C@H]21)C3(C)C	0.06 ×10⁻⁶ cm/s	0.05 ×10⁻⁶ cm/s	–	–	–	–	0.9	–	–	1.8 µM
CC(=O)O[C@@]12CO[C@@H]1C[C@H](O)[C@@]1(C)C(=O)[C@H](OC(=O)NCC(=O)O)C3=C(C)[C@@H](OC(=O)[C@H](O)[C@@H](NC(=O)OC(C)(C)C)c4ccccc4)C[C@@](O)([C@@H](OC(=O)c4ccccc4)[C@H]21)C3(C)C	< 0.2 ×10⁻⁶ cm/s	< 0.2 ×10⁻⁶ cm/s	–	–	–	–	–	–	–	1.7 µM
CC(=O)O[C@@]12CO[C@@H]1C[C@H](O)[C@@]1(C)C(=O)[C@H](OC(=O)N(C)[C@H](C)[C@H](O)c3ccccc3)C3=C(C)[C@@H](OC(=O)[C@H](O)[C@@H](NC(=O)c4ccccc4)c4ccccc4)C[C@@](O)([C@@H](OC(=O)c4ccccc4)[C@H]21)C3(C)C	< 0.2 ×10⁻⁶ cm/s	25.3 ×10⁻⁶ cm/s	–	–	–	–	> 127	–	–	0.024 µM
CC(=O)O[C@@]12CO[C@@H]1C[C@H](O)[C@@]1(C)C(=O)[C@H](OC(=O)N3CCOCC3)C3=C(C)[C@@H](OC(=O)[C@H](O)[C@@H](NC(=O)c4ccccc4)c4ccccc4)C[C@@](O)([C@@H](OC(=O)c4ccccc4)[C@H]21)C3(C)C	0.17 ×10⁻⁶ cm/s	22.6 ×10⁻⁶ cm/s	–	–	–	–	–	–	133	–
CC(=O)O[C@@]12CO[C@@H]1C[C@H](O)[C@@]1(C)C(=O)[C@H](O)C3=C(C)[C@@H](OC(=O)[C@H](O)[C@@H](NC(=O)OC(C)(C)C)c4ccccc4)C[C@@](O)([C@@H](OC(=O)c4ccccc4)[C@H]21)C3(C)C.O.O.O [DOCETAXEL]	< 0.62 ×10⁻⁶ cm/s	15.5 ×10⁻⁶ cm/s	–	–	–	inactive	> 25	–	–	0.027 µM
CC(=O)O[C@@]12CO[C@@H]1C[C@H](O)[C@@]1(C)C(=O)[C@H](OC(=O)N[C@H]3CCOC3=O)C3=C(C)[C@@H](OC(=O)[C@H](O)[C@@H](NC(=O)c4ccccc4)c4ccccc4)C[C@@](O)([C@@H](OC(=O)c4ccccc4)[C@H]21)C3(C)C	< 0.07 ×10⁻⁶ cm/s	0.21 ×10⁻⁶ cm/s	–	–	–	–	> 3	–	–	1.9 µM
CC(=O)O[C@@]12CO[C@@H]1C[C@H](O)[C@@]1(C)C(=O)[C@H](O)C3=C(C)[C@@H](OC(=O)[C@H](O)[C@@H](NC(=O)c4ccccc4)c4ccccc4)C[C@@](O)([C@@H](OC(=O)c4ccccc4)[C@H]21)C3(C)C	0.13 ×10⁻⁶ cm/s	5.17 ×10⁻⁶ cm/s	–	–	–	–	–	–	39	0.076 µM
CC(=O)O[C@@]12CO[C@@H]1C[C@H](O)[C@@]1(C)C(=O)[C@H](OC(=O)N(C)C(C)(C)C(=O)O)C3=C(C)[C@@H](OC(=O)[C@H](O)[C@@H](NC(=O)c4ccccc4)c4ccccc4)C[C@@](O)([C@@H](OC(=O)c4ccccc4)[C@H]21)C3(C)C	0.05 ×10⁻⁶ cm/s	0.05 ×10⁻⁶ cm/s	–	–	–	–	1	–	–	1 µM
CC(=O)O[C@H]1C(=O)[C@]2(C)[C@@H](OC(=O)NCC(=O)O)C[C@H]3OC[C@@]3(OC(C)=O)[C@H]2[C@H](OC(=O)c2ccccc2)[C@]2(O)C[C@H](OC(=O)[C@H](O)[C@@H](NC(=O)c3ccccc3)c3ccccc3)C(C)=C1C2(C)C	0.07 ×10⁻⁶ cm/s	0.06 ×10⁻⁶ cm/s	–	–	–	–	0.9	–	–	> 25 µM
